As usually defined, the pIC50 is −log10 of the IC50, conventionally taken in molar units. High values mean a small IC50, low ones a large IC50.

Consider two compounds from patent publication US20250345419A1, “TREATING CHEMORESISTANT CANCERS WITH NOTCH3 INHIBITORS” (Mayo Foundation for Medical Education and Research, priority 2022, published 2025).

For data set [1], the system named is 3D-MPS derived from SUM149-PT cells. Kind of data set: Real-time growth of RFP-tagged 3D-mammospheres (3D-MPS). The format is cell-based, human. To be noted: SUM149-PT 3D-MPS, AV-353 100 ng and/or DTX 5 nM, 96 hours. On the procedure:
FIGS. 7A and 7B show results from treatment of 3D-mammospheres (3D-MPS) of SM149-PT TNBC cells with AV-353 (½ IC50: 100 ng) and/or DTX (½ IC50: 5 nM). FIG. 7A includes representative images of RFP-tagged 3DMPS before and after treatment with AV-353 (½ IC50: 100 ng) and/or DTX (½ IC50: 5 nM) for 96 hours, using Annexin-V (red) as a marker of early apoptosis. FIG. 7B is a graph plotting real-time growth of RFP-tagged 3D-MPS before and after treatment with AV-353 (½ IC50: 100 ng) and/or DTX (½ IC50: 5 nM) for 96 hours. 3D-MPS growth was quantified using the INCUCYTE® Cell Player System. Three independent experiments were performed in triplicate (±S.D.).
(§1) Mammospheres Formation: Human breast cancer cells were plated in ultra-low attachment 24-well and 96-well culture dishes in 100 μL of MAMMOCULT™ medium (STEMCELL™ Technologies; Vancouver, BC, Canada). Medium was added every 2 days for a maximum of 8 days. Mammospheres were trypsinized and expanded every 8 days to form tertiary mammospheres, and their growth was recorded through a digital camera (Nikon).
Real-Time Cell Proliferation, Cytotoxicity and Apoptosis Assays: 5,000 cells were plated in Costar […] plates, treated with Docetaxel (DTX) and/or AV-353 (as monotherapy or in combination). Cell proliferation was monitored in real-time by GFP or RFP fluorescence intensity, and Red Annexin-V was used as an early marker of apoptosis. […]

Data set [2] relates to TNBC-M25 3D-MPS. As to the kind of experiment: TNBC-M25 mammosphere growth (area, Image-J). The format is cell-based, human. The method, then: FIGS. 4A and 4B show NOTCH3 genetic targeting in TNBC-M25 mammospheres. FIG. 4A includes images of TNBCM25 single-cell dilutions grown under non-adherent conditions. After 48 hours of incubation, mammospheres were treated with 5 nM (½ IC50) or 10 nM (IC50) docetaxel (DTX) for 10 days. FIG. 4B is a graph plotting mammosphere area measured using the NIH Image-J software. Three independent experiments were performed in triplicate (±S.D.).
as §1
Mammosphere Formation: Human breast cancer cells were plated in ultra-low attachment 24- and 96-well culture dishes in 100 μL of MAMMOCULT™ medium (STEMCELL™ Technologies), and medium was added every 2 days for a maximum of 8 days. Mammospheres were trypsinized and expanded every 8 days to form tertiary mammospheres, and their growth was recorded through a digital camera (Nikon).

The nature of data set [3]: Toxicology studies, PTX with escalating doses of AV-353. The format is in vivo, female NSG mice. To be noted: PTX 10 mg/Kg, AV-353 100, 200, 400 ug. The method, then:
FIG. 17 is a series of graphs plotting liver toxicity in mice treated with saline (CON), paclitaxel 10 mg/Kg (PTX), paclitaxel 10 mg/Kg+AV-353 100 ug (PTX+AV100), paclitaxel 10 mg/Kg+AV-353 200 ug (PTX+AV200), or paclitaxel 10 mg/Kg+AV-353 400 ug (PTX+AV400), based on measurements of liver function indicators: alanine aminotransferase (ALT), aspartate aminotransferase (AST), alkaline phosphatase (ALP), and total bilirubin (TBIL), as well as an indicator of kidney function (creatinine; CRE), and an indicator of general nutritional status (albumin; ALB). Blood samples (1 ml) were collected from animals, and liver enzyme analysis was carried out using a VETSCAN® instrument (Zoetis; Parsippany, NJ).
Toxicology studies: Female NSG mice received saline solution (control) or 10 mg/Kg paclitaxel (PTX) as monotherapy or in combination with escalating doses of AV-353 (AV100 ug, AV200 ug, and AV400 ug). PTX and AV-353 were administered intraperitoneally 3 times per week for 4 weeks. […] After drug treatment, animals were euthanized and organs of interest (liver and stomach) were paraffin embedded, sectioned, and hematoxylin and eosin stained. […] Although no liver damage was detected at the morphological or histological level, further studies were conducted to determine the extent to which the drug treatments induced an increase of liver enzymes. […]

The structures appear in SMILES notation. pIC50: −log10 of the molar value. “Also recorded” adds a separate entry of the source.

For the compound `CC(=O)O[C@@]12CO[C@@H]1C[C@H](O)[C@@]1(C)C(=O)[C@H](O)C3=C(C)[C@@H](OC(=O)[C@H](O)[C@@H](NC(=O)OC(C)(C)C)c4ccccc4)C[C@@](O)([C@@H](OC(=O)c4ccccc4)[C@H]21)C3(C)C` [DTX, docetaxel], in data set [1], the “mammosphere (3D-MPS) growth” value is given as “small effect on growth”. In data set [2] (Homo sapiens, TNBC-M25 mammospheres), the pIC50 is 8.00. In addition, the 3D-MPS growth result in data set [2] (TNBC-M25 3D-MPS) is “did not inhibit 3D MPS growth”.

For `CC(=O)O[C@H]1C(=O)[C@@]2(C)[C@H]([C@H](OC(=O)c3ccccc3)[C@]3(O)C[C@H](OC(=O)[C@H](O)[C@@H](NC(=O)c4ccccc4)c4ccccc4)C(C)=C1C3(C)C)[C@]1(OC(C)=O)CO[C@@H]1C[C@@H]2O` [PTX, paclitaxel], in data set [3] (3 times per week for 4 weeks), the “liver and stomach histology (H&E)” value is “No significant damage; also recorded: no significant changes in the architecture of liver and stomach tissue”. The body weight entry in data set [3] (intraperitoneally 3 times per week for 4 weeks) is given as “did not induce body weight loss”.
